Experimental data taken from patent publication US6716809B1, “Mage-A3 peptides presented by HLA class molecules” (priority 1997, dated 2004).

Tested on: CD4+ clone 436/B6.37 (B6/37)
Assay: IFN-γ/TNF production by CD4+ clone B6/37 (clone 37) stimulated with peptide- or protein-pulsed EBV-B cells
Type: cell-based, human
How it was run: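 CD4+ clone (2,500 cells) cocultured 18-20 h with 5,000 EBV-B cells pre-pulsed 2 h at 37 °C with MAGE-A3 peptides or 18-20 h with 20 μg/ml His-MAGE-A3 protein; ovalbumin as negative control. IFN-γ measured by ELISA, TNF by WEHI 164 clone 13 cytotoxicity (MTT); triplicates.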

Sequence: FLLLKYRAREPVTKAE (listed as Homo sapiens) [MAGE-A3119-134]
- activation of clone B6/37 by 16 amino acid peptides: unable to activate
- stimulation of clone 37 (same conditions (peptide 10 ng/ml; HLA-DR13 EBV-B cells)): not stimulated
